Data from US20230096380A1, “COMPOUNDS, COMPOSITIONS, METHODS FOR TREATING DISEASES AND NERVE DAMAGE, AND METHODS FOR PREPARING COMPOUNDS” (CHILDREN'S HOSPITAL MEDICAL CENTER, priority 2020, published 2023).
“Also recorded” adds a separate entry of the source. Blank lines part the entries; values can stand above or below the compound they belong to.

Assays:
p300 = biological target: T1, p300 (Rattus norvegicus, UniProt A0ABK0LGW0); experiment: p300 activity inhibition (FIG. 2)
T1 construct: Isolated rat OPCs were grown in Sato growth medium; endogenous in cells; host or cells: primary rat oligodendrocyte progenitor cells (OPCs) from newborn rat brain

[1] = tested on: Rat oligodendrocyte progenitor cells (OPCs); experiment: Rat OPC differentiation, MBP and Olig2 immunostaining after 48 h treatment (FIG. 18); format: cell-based; conditions: for OPC differentiation (MBP, Olig2 immunostaining): at the indicated concentration
Method: FIG. 18. Methods: This method generally follows that found in WANG et al. (2017) “miR-219 Cooperates with miR-338 in Myelination and Promotes Myelin Repair in the CNS” Dev Cell, Vol. 40, pp. 566-582. Rat oligodendrocyte progenitor cells (OPCs) were seeded on coverslip and treated with compounds, I-1, I-16, I-15, I-13, I-8, and I-17 at the indicated concentration. Cells were immunostained with a mature oligodendrocyte marker MBP and an oligodendrocyte lineage marker Olig2 after 48 h treatment.

[2] = tested on: Primary oligodendrocyte progenitor cells (OPCs); experiment: Rat primary OPC differentiation, immunostaining for MBP, OLIG2 and/or cleaved Caspase 3 (FIGS. 1-6); format: cell-based
Text: FIGS. 1-6. Primary oligodendrocyte progenitor cells (OPCs) were obtained from newborn rat brains after preparation of mixed glial cultures. This method generally follows that found in ZHAO et al. (2018) “Dual Requirement of CHD8 for Chromatin Landscape Establishment and Histone Methyltransferase Recruitment to Promote CNS Myelination and Repair” Dev Cell, Vol. 45, pp. 753-768. Briefly, mixed glial cells were initially cultured in DMEM-F12 medium supplied with 15% FBS, then switched to B104 conditioned medium for 2 days before isolating OPCs by mechanical detachment in an orbital shaker. Isolated rat OPCs were grown in Sato growth medium supplemented with mitogens 10 ng/ml PDGF-AA and 10 ng/ml bFGF. OPCs were then treated with indicated compounds and immunostained with oligodendrocyte myelination markers MBP and OLIG2, and/or a cell death marker cleaved Caspase 3. T3 ((2S)-2-amino-3-[4-(4-hydroxy-3-iodophenoxy)-3,5-diiodophenyl]propanoic acid; CAS 6893-02-3) was used as a positive control; the T3 concentration used was 15 nm.

[3] = tested on: experimental autoimmune encephalomyelitis (EAE) demyelinating mouse model; experiment: EAE demyelinating mouse model induced by myelin peptide MOG35-55 (FIG. 7); format: in vivo; conditions: EAE mice
Text: FIG. 7. This method generally follows that found in WANG et al. (2017) “miR-219 Cooperates with miR-338 in Myelination and Promotes Myelin Repair in the CNS” Dev Cell, Vol. 40, pp. 566-582.

EAE mice = experiment: Visual evoked potential (VEP) analyses on EAE mice (FIG. 17); format: in vivo; conditions: EAE mice at the peak of disease, versus Vehicle
Method: FIG. 17. Visual evoked potential (VEP) analyses were carried out on EAE mice treated with Vehicle and compound I-1 at the peak of disease. This method generally follows that found in YOU et al. (2011) “Latency delay of visual evoked potential is a real measurement of demyelination in a rat model of optic neuritis” Invest Ophthalmol Vis Sci, Vol. 52, pp. 6911-6918.

T1 sequence (A0ABK0LGW0 1-2423): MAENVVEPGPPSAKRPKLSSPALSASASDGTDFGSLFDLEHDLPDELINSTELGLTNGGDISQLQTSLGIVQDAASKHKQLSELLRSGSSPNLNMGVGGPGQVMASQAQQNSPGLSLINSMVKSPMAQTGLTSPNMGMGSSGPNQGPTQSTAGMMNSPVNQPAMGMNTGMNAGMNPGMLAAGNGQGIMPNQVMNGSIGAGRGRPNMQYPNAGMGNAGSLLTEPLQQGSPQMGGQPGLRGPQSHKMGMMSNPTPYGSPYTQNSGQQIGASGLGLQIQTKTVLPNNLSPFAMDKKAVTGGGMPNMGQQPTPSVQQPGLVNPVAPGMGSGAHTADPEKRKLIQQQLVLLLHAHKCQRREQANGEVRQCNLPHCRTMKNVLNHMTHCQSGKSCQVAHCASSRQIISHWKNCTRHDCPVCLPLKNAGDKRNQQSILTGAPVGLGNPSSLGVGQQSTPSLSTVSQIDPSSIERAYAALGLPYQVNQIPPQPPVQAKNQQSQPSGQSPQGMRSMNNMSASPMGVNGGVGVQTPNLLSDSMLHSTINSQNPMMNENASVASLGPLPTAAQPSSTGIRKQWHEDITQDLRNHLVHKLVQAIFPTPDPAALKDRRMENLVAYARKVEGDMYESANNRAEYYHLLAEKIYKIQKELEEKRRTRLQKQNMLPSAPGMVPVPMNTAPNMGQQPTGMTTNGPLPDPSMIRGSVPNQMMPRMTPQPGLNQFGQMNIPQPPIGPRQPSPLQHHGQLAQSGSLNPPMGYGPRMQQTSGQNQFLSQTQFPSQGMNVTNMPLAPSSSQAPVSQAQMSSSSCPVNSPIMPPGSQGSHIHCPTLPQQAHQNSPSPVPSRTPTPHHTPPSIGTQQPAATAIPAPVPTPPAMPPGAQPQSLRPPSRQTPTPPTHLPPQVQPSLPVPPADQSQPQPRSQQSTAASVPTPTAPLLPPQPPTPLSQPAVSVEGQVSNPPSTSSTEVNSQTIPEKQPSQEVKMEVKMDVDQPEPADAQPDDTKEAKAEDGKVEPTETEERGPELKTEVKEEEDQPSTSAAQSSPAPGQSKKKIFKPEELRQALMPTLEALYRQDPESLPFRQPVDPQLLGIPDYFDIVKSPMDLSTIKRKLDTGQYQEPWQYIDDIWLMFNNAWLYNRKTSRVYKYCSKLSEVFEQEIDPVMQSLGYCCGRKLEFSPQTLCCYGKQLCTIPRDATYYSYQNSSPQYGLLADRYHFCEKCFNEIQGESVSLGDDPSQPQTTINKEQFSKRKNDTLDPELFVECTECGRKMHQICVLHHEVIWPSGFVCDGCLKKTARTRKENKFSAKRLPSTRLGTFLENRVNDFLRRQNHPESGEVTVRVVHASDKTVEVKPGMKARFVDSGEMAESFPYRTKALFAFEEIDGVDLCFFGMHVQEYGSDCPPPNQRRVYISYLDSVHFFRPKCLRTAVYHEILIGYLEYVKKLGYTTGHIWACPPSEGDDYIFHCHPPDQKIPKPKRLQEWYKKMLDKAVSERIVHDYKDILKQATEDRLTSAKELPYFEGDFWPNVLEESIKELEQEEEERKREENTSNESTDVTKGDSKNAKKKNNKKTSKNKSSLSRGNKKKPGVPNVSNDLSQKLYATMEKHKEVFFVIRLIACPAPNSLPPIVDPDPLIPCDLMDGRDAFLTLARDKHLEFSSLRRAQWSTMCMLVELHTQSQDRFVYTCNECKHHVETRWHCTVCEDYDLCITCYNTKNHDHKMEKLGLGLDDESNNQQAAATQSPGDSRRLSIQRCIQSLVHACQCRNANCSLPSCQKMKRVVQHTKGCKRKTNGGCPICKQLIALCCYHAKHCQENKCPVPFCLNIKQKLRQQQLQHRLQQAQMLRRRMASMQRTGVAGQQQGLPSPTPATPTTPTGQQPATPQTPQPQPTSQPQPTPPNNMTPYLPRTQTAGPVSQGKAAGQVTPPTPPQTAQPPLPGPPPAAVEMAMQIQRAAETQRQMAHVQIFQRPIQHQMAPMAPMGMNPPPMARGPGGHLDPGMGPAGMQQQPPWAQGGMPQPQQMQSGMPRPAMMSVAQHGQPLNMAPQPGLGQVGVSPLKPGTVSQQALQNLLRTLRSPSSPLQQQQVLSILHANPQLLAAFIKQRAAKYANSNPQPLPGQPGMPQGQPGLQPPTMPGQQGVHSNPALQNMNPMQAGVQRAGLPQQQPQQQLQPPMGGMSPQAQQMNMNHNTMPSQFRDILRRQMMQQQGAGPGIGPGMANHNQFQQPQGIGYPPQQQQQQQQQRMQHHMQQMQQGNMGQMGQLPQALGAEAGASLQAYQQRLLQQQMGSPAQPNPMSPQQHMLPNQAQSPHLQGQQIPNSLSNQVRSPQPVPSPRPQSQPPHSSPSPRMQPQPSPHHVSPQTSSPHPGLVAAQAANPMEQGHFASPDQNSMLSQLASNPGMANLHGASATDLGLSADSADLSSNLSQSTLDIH

p300 activity (p300): inhibits p300 activity
SMILES: CNC(=O)Nc1ccc2c(c1)CC[C@@]21OC(=O)N(CC(=O)N(Cc2ccc(F)cc2)[C@@H](C)C(F)(F)F)C1=O [Compound A485]

SMILES: Nc1ccccc1NC(=O)c1cnc(NC(c2ccccc2)c2ccccc2)cn1 [Compound I-8]
activity in promoting OPC into mature oligodendrocytes relative to compound I-1 [1]: comparable activity with compound I-1
OPC differentiation (MBP, Olig2 immunostaining) [1]: promote OPC differentiation

SMILES: Nc1ccccc1NC(=O)c1cnc(NC(=O)C(N)c2ccccc2)cn1 (centres unmarked) [Compound I-17]
activity in promoting OPC into mature oligodendrocytes relative to compound I-1 [1]: comparable activity with compound I-1
OPC differentiation (MBP, Olig2 immunostaining) [1]: promote OPC differentiation

SMILES: Nc1ccccc1NC(=O)c1cnc(NC2=N[C@H](c3ccccc3)[C@H](c3ccccc3)O2)cn1 [Compound I-15]
OPC differentiation (MBP, Olig2 immunostaining) [1]: promote OPC differentiation

SMILES: Nc1ccccc1NC(=O)c1cnc(NCc2ccccc2)cn1 [Compound I-1]
myelin MBP+ cell formation 3 days after treatment ([2]; 3 days after treatment, FIG. 6): enhances myelin MBP+ cell formation
myelin MBP+ cell formation ([2]; FIG. 5): enhances myelin MBP+ cell formation
oligodendrocyte differentiation and myelination in vitro ([2]; rat OPCs, MBP/OLIG2 immunostaining, FIGS. 1-6): promoted oligodendrocyte differentiation and myelination in vitro
OPC differentiation ([2]; rat primary OPCs, FIGS. 1, 3, 4): promotes oligodendrocyte progenitor cell (OPC) differentiation
myelin formation in presence of A485 ([2]; with p300 inhibitor A485, FIG. 2): appears to overcome A485 inhibition to enhance myelin formation
functional regeneration [3]: promotes functional regeneration
EAE disease severity / motor function (clinical scores) ([3]; MOG35-55 induced): improved motor function reflected in clinical scores; also recorded: reduced EAE disease severity
VEP N1 signals (EAE mice): showed greater and faster conducting VEP N1 signals
OPC differentiation (MBP, Olig2 immunostaining) [1]: promote OPC differentiation

SMILES: Nc1ccccc1NC(=O)c1cnc(NC(=O)C(c2ccccc2)c2ccccc2)cn1 [Compound I-13]
OPC differentiation (MBP, Olig2 immunostaining) [1]: promote OPC differentiation

SMILES: CC(C(=O)Nc1cnc(C(=O)Nc2ccccc2N)cn1)c1ccccc1 (centres unmarked) [Compound I-16]
OPC differentiation (MBP, Olig2 immunostaining) [1]: promote OPC differentiation
